Patent publication US20250275938A1, “COMPOSITIONS AND METHODS FOR TREATMENT OF CANCER” (SCIROSBIO (FZC), priority 2022, published 2025)

What was measured:
VEGF = experiment: Immunohistochemistry of tumor sections, VEGF; format: in vivo, rat; details: i.p. 7 days; tumor-control 73.58%
Description: Immunohistochemistry. For immunohistochemistry (IHC) analysis, 4 μm thick tissue sections were deparaffinized in xylene and hydrated by immersing in a series of graded ethanol concentration (100%, 95%, 75% and 50%). Endogenous peroxidase activity was blocked by incubating sections in 3% H2O2 solution prepared in methanol at room temperature for 10 minutes and were washed with PBS twice for 5 minutes each. Antigen retrieval was performed by immersing the slides in 300 ml of retrieval buffer (10 mM citrate buffer, pH 6.0) for one hour at 100° C. and were rinsed twice in PBS. Sections were then incubated with approximately 100 μl diluted primary antibodies of Ki67 (1:100 dilution, Elabscience, Wuhan, China) and Vascular Endothelial Growth Factor (VEGF) (1:100 dilution, Elabscience, Wuhan, China) for 30 minutes at room temperature. The slides were then washed twice with PBS and were then incubated with approximately 100 μl of diluted secondary antibody (Cat No. E-IR-R213, Elabscience, Wuhan, China) at room temperature for 30 minutes. Slides were then washed in PBS for 5 minutes, followed by incubation with approximately 100 μl diluted Horse Radish Peroxidase (HRP) conjugate for 30 minutes. […] The staining intensities were quantified using IHC Profiler, a plugin in ImageJ software, to determine the H-score (Histo score).

TBARS in U87MG cells = experiment: TBARS (MDA) assay, U87MG; format: cell-based, human; details: vs control
Description: (§1) Determination of TBARS levels. TBARS (thiobarbituric acid reactive substances), by-products of lipid peroxidation, were analyzed by measuring the concentration of malondialdehyde (MDA). The levels of MDA were measured in cell lysates using TBARS assay (Catalog No. 10009055, Cayman Chemical, Ann Arbor, USA). The concentration of lipid peroxides was calculated as an MDA equivalent using the extinction coefficient for the MDA-TBA complex of 1.56×10^5 M−1 cm^−1 at 532 nm.

TBARS in C6 cells = experiment: TBARS (MDA) assay, C6; format: cell-based, rat; details: vs control
Description: as §1

[1] = LC/MS of drugs and active metabolites in plasma and brain (blood brain barrier); format: in vivo, rat
Description: T, M & E (Sigma Aldrich, St. Louis, USA) were dissolved in sterile water and administered intra peritoneally for 7 days (from day 21 to day 27; where the day of tumor induction is considered day 0) to a rat with the dose specified in Table-4 (TME: 50+80+150 mg/kg body weight). After 7 days of treatment (on day 28), blood (plasma) was collected and the rat was euthanized, immediately the brain tissue was collected and stored at −80° C. The brain tissue was then processed accordingly to measure active metabolites through LC/MS.
To 100 μl of plasma or brain (0.5 g crushed in 0.5 mL of sterile water), 20 μl of the working internal standard solution was added. The samples were deproteinised with acetonitrile and the supernatant (100 μl) was injected into the chromatographic system. For the brain, as described above, ciprofloxacin solution (20 μl) was added to 100 μl of crushed brain. Then, repeating the plasma sample process, 20 μl of the solution was injected into the chromatographic system.

[2] = tested on: SOD, CAT, GPx, GSH in C6 glioma cells; experiment: Antioxidant marker kits (SOD, CAT, GPx, GSH), C6; format: cell-based, rat; details: vs control
Description: Antioxidant markers. […] All experiments were carried out according to the manufacturer's instructions. Three independent biological replicates were performed for each condition.

[3] = triple combination TME 50+80+150 mg/kg i.p. 7 days, NA = not detected

O=C(O[C@@H]1Cc2c(O)cc(O)cc2O[C@@H]1c1cc(O)c(O)c(O)c1)c1cc(O)c(O)c(O)c1 [EGCG, [(2R,3R)-5,7-dihydroxy-2-(3,4,5-trihydroxyphenyl)-3,4-dihydro-2H-chromen-3-yl] 3,4,5-trihydroxybenzoate]
cytoplasmic positivity for VEGF (H-score) (VEGF): 44.45%
TBARS levels (TBARS in U87MG cells): significantly elevated
TBARS levels (TBARS in C6 cells): significantly elevated
transport across the blood brain barrier, in words ([1]; administered individually and in combination): crossed the BBB in its native form
Detected mass in LC-MS Brain ([1]; individually treated T, M and E, i.p. 7 days, NA = not detected): 466.11
Detected mass in LC-MS Brain [1, 3]: 456.11
Detected mass in LC-MS Plasma [1, 3]: 452.91
concentrations of antioxidant markers SOD, CAT, GPx, and GSH [2]: significantly enhanced
